{"source": "patent US12077503B2", "about": "“Substituted cyclic amides and their use as herbicides” (FMC CORPORATION, priority 2015, dated 2024)", "format_in_all_cases": "in vivo", "key": {"rice (Oryza sativa)": {"system": "rice (Oryza sativa)", "test": "Test C flooded paddy test", "conditions": "Flood; for Plant response rating (scale of 0 to 100), Rice: 0 is no effect, 100 is complete control", "summary_of_the_method": "(§1)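 Rice, small-flower umbrella sedge, ducksalad and barnyardgrass at the 2-leaf stage were flooded to 3 cm, and compound was applied into the paddy water. After 13 to 15 d in a greenhouse, plants were rated visually against controls on a 0 (no effect) to 100 (complete control) scale.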"}, "[1]": {"system": "sedge, umbrella (small-flower umbrella sedge, Cyperus difformis)", "test": "Test C flooded paddy test", "conditions": "Flood; for Plant response rating (scale of 0 to 100), Sedge, Umbrella: 0 is no effect, 100 is complete control", "summary_of_the_method": "as §1"}, "[2]": {"system": "ducksalad (Heteranthera limosa)", "test": "Test C flooded paddy test", "conditions": "Flood; for Plant response rating (scale of 0 to 100), Ducksalad: 0 is no effect, 100 is complete control", "summary_of_the_method": "as §1"}, "[3]": {"system": "redstem (purple redstem, Ammannia coccinea)", "test": "Test F flooded paddy test", "conditions": "Flood", "excerpt": "(§2) Plant species in the flooded paddy test consisted of one stand of 9 or 10 water seeded rice seedlings (Rice, W. S. Jap, Oryza sativa cv. ‘Japonica—M202’ or Rice, W. S. Ind, ‘Indica’), and two stands of 3 or 4 transplanted rice seedlings (Oryza sativa cv. ‘Japonica—M202’), Monochoria (Monochoria vaginalis), sedge, umbrella (small-flower umbrella sedge, Cyperus difformis), hardstem bulrush (Scirpus juncoides), redstem (purple redstem, Ammannia coccinea), rice flatsedge (Cyperus iria), bearded sprangletop (Leptochloa fascicularis), barnyardgrass (Echinochloa crus-galli), waterplantain (common waterplantain, Alisma plantago-aquatica), and late watergrass (Echinochloa oryzicola) grown to the 2 to 2.5 leaf stage for testing. Potted plants were grown in a greenhouse with day/night temperature settings of 30/27° C., and supplemental balanced lighting was provided to maintain a 16-hour photoperiod. At time of treatment, test pots were flooded to 3 cm above the soil surface, treated by application of test compounds directly to the paddy water, and then maintained at that water depth for the duration of the test. Effects of treatments on rice and weeds were visually evaluated by comparison to untreated controls after 21 d. Plant response ratings, summarized in Table F, are based on a scale of 0 to 100 where 0 is no effect and 100 is complete control. A dash (-) response means no test result."}, "[4]": {"system": "waterplantain (common waterplantain, Alisma plantago-aquatica)", "test": "Test F flooded paddy test", "conditions": "Flood", "excerpt": "as §2"}, "[5]": {"conditions": "16 g ai/ha, scale 0 to 100 (0 no effect, 100 complete control), 13 to 15 d"}}}
{"smiles": "Cc1ccc(C2CN(C)C(=O)C2C(=O)Nc2ccccc2F)cc1F", "note": "(stereo not shown) [Compound 465]", "values": [{"measurement": "Plant response rating, Rice", "setting": "rice (Oryza sativa); [5]", "result": 0}, {"measurement": "Plant response rating (scale of 0 to 100), Rice", "setting": "rice (Oryza sativa); 31 g ai/ha", "result": 0}, {"measurement": "Plant response rating (scale of 0 to 100), Rice", "setting": "rice (Oryza sativa); 62 g ai/ha", "result": 0}, {"measurement": "Plant response rating (scale of 0 to 100), Rice", "setting": "rice (Oryza sativa); 125 g ai/ha", "result": 0}, {"measurement": "Plant response rating, Sedge, Umbrella", "setting": "[1]; [5]", "result": 0}, {"measurement": "Plant response rating (scale of 0 to 100), Sedge, Umbrella", "setting": "[1]; 31 g ai/ha", "result": 0}, {"measurement": "Plant response rating (scale of 0 to 100), Sedge, Umbrella", "setting": "[1]; 62 g ai/ha", "result": 0}, {"measurement": "Plant response rating (scale of 0 to 100), Sedge, Umbrella", "setting": "[1]; 125 g ai/ha", "result": 0}, {"measurement": "Plant response rating, Ducksalad", "setting": "[2]; [5]", "result": 0}, {"measurement": "Plant response rating (scale of 0 to 100), Ducksalad", "setting": "[2]; 31 g ai/ha", "result": 45}, {"measurement": "Plant response rating (scale of 0 to 100), Ducksalad", "setting": "[2]; 62 g ai/ha", "result": 65}, {"measurement": "Plant response rating (scale of 0 to 100), Ducksalad", "setting": "[2]; 125 g ai/ha", "result": 90}, {"measurement": "Plant response rating: Redstem", "setting": "[3]; 32 g ai/ha", "result": 0}, {"measurement": "Plant response rating: Redstem", "setting": "[3]; 64 g ai/ha", "result": 0}, {"measurement": "Plant response rating: Redstem", "setting": "[3]; 125 g ai/ha", "result": 0}, {"measurement": "Plant response rating: Redstem", "setting": "[3]; 250 g ai/ha", "result": 45}, {"measurement": "Plant response rating: Waterplantain", "setting": "[4]; 32 g ai/ha", "result": 0}, {"measurement": "Plant response rating: Waterplantain", "setting": "[4]; 64 g ai/ha", "result": 40}, {"measurement": "Plant response rating: Waterplantain", "setting": "[4]; 125 g ai/ha", "result": 90}, {"measurement": "Plant response rating: Waterplantain", "setting": "[4]; 250 g ai/ha", "result": 100}]}
{"smiles": "CN1CC(c2ccc(F)c(C(F)(F)F)c2)C(C(=O)Nc2ccccc2S(C)(=O)=O)C1=O", "note": "(stereo not shown) [Compound 612]", "values": [{"measurement": "Plant response rating (scale of 0 to 100), Rice", "setting": "rice (Oryza sativa); 31 g ai/ha", "result": 0}, {"measurement": "Plant response rating (scale of 0 to 100), Rice", "setting": "rice (Oryza sativa); 62 g ai/ha", "result": 0}, {"measurement": "Plant response rating (scale of 0 to 100), Rice", "setting": "rice (Oryza sativa); 125 g ai/ha", "result": 0}, {"measurement": "Plant response rating (scale of 0 to 100), Rice", "setting": "rice (Oryza sativa); 250 g ai/ha", "result": 15}, {"measurement": "Plant response rating (scale of 0 to 100), Sedge, Umbrella", "setting": "[1]; 31 g ai/ha", "result": 0}, {"measurement": "Plant response rating (scale of 0 to 100), Sedge, Umbrella", "setting": "[1]; 62 g ai/ha", "result": 0}, {"measurement": "Plant response rating (scale of 0 to 100), Sedge, Umbrella", "setting": "[1]; 125 g ai/ha", "result": 0}, {"measurement": "Plant response rating (scale of 0 to 100), Sedge, Umbrella", "setting": "[1]; 250 g ai/ha", "result": 0}, {"measurement": "Plant response rating (scale of 0 to 100), Ducksalad", "setting": "[2]; 31 g ai/ha", "result": 0}, {"measurement": "Plant response rating (scale of 0 to 100), Ducksalad", "setting": "[2]; 62 g ai/ha", "result": 0}, {"measurement": "Plant response rating (scale of 0 to 100), Ducksalad", "setting": "[2]; 125 g ai/ha", "result": 0}, {"measurement": "Plant response rating (scale of 0 to 100), Ducksalad", "setting": "[2]; 250 g ai/ha", "result": 55}]}
{"smiles": "CN1CC(c2cccc(OC(F)F)c2)C(C(=O)Nc2ccc(F)cc2F)C1=O", "note": "(stereo not shown) [Compound 617]", "values": [{"measurement": "Plant response rating: Redstem", "setting": "[3]; 32 g ai/ha", "result": 0}, {"measurement": "Plant response rating: Redstem", "setting": "[3]; 64 g ai/ha", "result": 0}, {"measurement": "Plant response rating: Redstem", "setting": "[3]; 125 g ai/ha", "result": 0}, {"measurement": "Plant response rating: Redstem", "setting": "[3]; 250 g ai/ha", "result": 0}, {"measurement": "Plant response rating: Waterplantain", "setting": "[4]; 32 g ai/ha", "result": 0}, {"measurement": "Plant response rating: Waterplantain", "setting": "[4]; 64 g ai/ha", "result": 75}, {"measurement": "Plant response rating: Waterplantain", "setting": "[4]; 125 g ai/ha", "result": 85}, {"measurement": "Plant response rating: Waterplantain", "setting": "[4]; 250 g ai/ha", "result": 90}]}
